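Test compounds were applied to cells in 96-well plates for 48 hours at 5 doses. The concentration for full growth arrest is given as TGI.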 Where a SMILES comes first, the peptide text is derived from it. [ ]: non-standard residue; d: D form. Ava = NCCCCC(=O)O; Mpa = O=C(O)CCS
Tests used:
Assay in all cases: NCI-60 cell line screen, 48 h
786-0 renal = test system: 786-0 renal
A498 renal = test system: A498 renal
A549 NSCLC = test system: A549 NSCLC
ACHN renal = test system: ACHN renal
BT-549 breast = test system: BT-549 breast
CAKI-1 renal = test system: CAKI-1 renal
CCRF-CEM leukemia = test system: CCRF-CEM leukemia
COLO 205 colon = test system: COLO 205 colon
DU-145 prostate = test system: DU-145 prostate
EKVX NSCLC = test system: EKVX NSCLC
HCT-116 colon = test system: HCT-116 colon
HCT-15 colon = test system: HCT-15 colon
HL-60(TB) leukemia = test system: HL-60(TB) leukemia
HOP-62 NSCLC = test system: HOP-62 NSCLC
HOP-92 NSCLC = test system: HOP-92 NSCLC
HS 578T breast = test system: HS 578T breast
HT29 colon = test system: HT29 colon
IGROV1 ovarian = test system: IGROV1 ovarian
K-562 leukemia = test system: K-562 leukemia
KM12 colon = test system: KM12 colon
LOX IMVI melanoma = test system: LOX IMVI melanoma
M14 melanoma = test system: M14 melanoma
MALME-3M melanoma = test system: MALME-3M melanoma
MCF7 breast = test system: MCF7 breast
MDA-MB-231 breast = test system: MDA-MB-231 breast
MDA-MB-435 = test system: MDA-MB-435
MDA-N = test system: MDA-N
MOLT-4 leukemia = test system: MOLT-4 leukemia
NCI-H226 lung = test system: NCI-H226 lung
NCI-H23 lung = test system: NCI-H23 lung
NCI-H460 lung = test system: NCI-H460 lung
NCI-H522 lung = test system: NCI-H522 lung
NCI/ADR-RES ovarian = test system: NCI/ADR-RES ovarian
OVCAR-3 ovarian = test system: OVCAR-3 ovarian
OVCAR-4 ovarian = test system: OVCAR-4 ovarian
OVCAR-5 ovarian = test system: OVCAR-5 ovarian
OVCAR-8 ovarian = test system: OVCAR-8 ovarian
PC-3 prostate = test system: PC-3 prostate
RPMI-8226 leukemia = test system: RPMI-8226 leukemia
RXF 393 renal = test system: RXF 393 renal
SF-268 CNS = test system: SF-268 CNS
SF-295 CNS = test system: SF-295 CNS
SF-539 CNS = test system: SF-539 CNS
SK-MEL-2 melanoma = test system: SK-MEL-2 melanoma
SK-MEL-28 melanoma = test system: SK-MEL-28 melanoma
SK-MEL-5 melanoma = test system: SK-MEL-5 melanoma
SK-OV-3 ovarian = test system: SK-OV-3 ovarian
SN12C renal = test system: SN12C renal
SNB-19 CNS = test system: SNB-19 CNS
SNB-75 CNS = test system: SNB-75 CNS
SR leukemia = test system: SR leukemia
SW-620 colon = test system: SW-620 colon
T-47D breast = test system: T-47D breast
TK-10 renal = test system: TK-10 renal
U251 CNS = test system: U251 CNS
UACC-257 melanoma = test system: UACC-257 melanoma
UACC-62 melanoma = test system: UACC-62 melanoma
UO-31 renal = test system: UO-31 renal

CC(NC(=O)CCS)C(=O)NC(C)C(=O)NC(Cc1c[nH]c2ccccc12)C(=O)NC(Cc1c[nH]cn1)C(=O)NC(CO)C(=O)NC(Cc1c[nH]c2ccccc12)C(=O)NCCCCC(=O)NC(C)C(=O)NC(CCC(N)=O)C(=O)NC(CCCCN)C(=O)NC(C)C(=O)NC(CCCNC(=N)N)C(=O)NC(CCCCN)C(N)=O (stereo unspecified) ([Mpa]AAWHSW[Ava]AQKARK-NH2; configuration not given here)
TGI (786-0 renal): > 100 µM
TGI (A498 renal): > 100 µM
TGI (A549 NSCLC): > 100 µM
TGI (ACHN renal): > 100 µM
TGI (BT-549 breast): > 100 µM
TGI (CAKI-1 renal): > 100 µM
TGI (CCRF-CEM leukemia): > 100 µM
TGI (COLO 205 colon): > 100 µM
TGI (DU-145 prostate): > 100 µM
TGI (EKVX NSCLC): > 100 µM
TGI (HCT-116 colon): > 100 µM
TGI (HCT-15 colon): > 100 µM
TGI (HL-60(TB) leukemia): 65.4 µM
TGI (HOP-62 NSCLC): > 100 µM
TGI (HOP-92 NSCLC): > 100 µM
TGI (HS 578T breast): > 100 µM
TGI (HT29 colon): > 100 µM
TGI (IGROV1 ovarian): > 100 µM
TGI (K-562 leukemia): 99.4 µM
TGI (KM12 colon): 88.7 µM
TGI (LOX IMVI melanoma): > 100 µM
TGI (M14 melanoma): > 100 µM
TGI (MALME-3M melanoma): 36.9 µM
TGI (MCF7 breast): > 100 µM
TGI (MDA-MB-231 breast): > 100 µM
TGI (MDA-MB-435): > 100 µM
TGI (MDA-N): > 100 µM
TGI (MOLT-4 leukemia): > 100 µM
TGI (NCI-H226 lung): > 100 µM
TGI (NCI-H23 lung): > 100 µM
TGI (NCI-H460 lung): > 100 µM
TGI (NCI-H522 lung): > 100 µM
TGI (NCI/ADR-RES ovarian): > 100 µM
TGI (OVCAR-3 ovarian): > 100 µM
TGI (OVCAR-4 ovarian): > 100 µM
TGI (OVCAR-5 ovarian): > 100 µM
TGI (OVCAR-8 ovarian): > 100 µM
TGI (PC-3 prostate): > 100 µM
TGI (RPMI-8226 leukemia): > 100 µM
TGI (RXF 393 renal): > 100 µM
TGI (SF-268 CNS): > 100 µM
TGI (SF-295 CNS): > 100 µM
TGI (SF-539 CNS): > 100 µM
TGI (SK-MEL-2 melanoma): > 100 µM
TGI (SK-MEL-28 melanoma): > 100 µM
TGI (SK-MEL-5 melanoma): > 100 µM
TGI (SK-OV-3 ovarian): > 100 µM
TGI (SN12C renal): > 100 µM
TGI (SNB-19 CNS): > 100 µM
TGI (SNB-75 CNS): > 100 µM
TGI (SR leukemia): > 100 µM
TGI (SW-620 colon): > 100 µM
TGI (T-47D breast): 64 µM
TGI (TK-10 renal): > 100 µM
TGI (U251 CNS): > 100 µM
TGI (UACC-257 melanoma): 63.1 µM
TGI (UACC-62 melanoma): 52 µM
TGI (UO-31 renal): > 100 µM

Nc1nc(N)nc(CCCCc2nc(N)nc(N)n2)n1
TGI (786-0 renal): > 100 µM
TGI (A498 renal): > 100 µM
TGI (A549 NSCLC): > 100 µM
TGI (ACHN renal): > 100 µM
TGI (BT-549 breast): > 100 µM
TGI (CAKI-1 renal): > 100 µM
TGI (CCRF-CEM leukemia): > 100 µM
TGI (COLO 205 colon): > 100 µM
TGI (DU-145 prostate): > 100 µM
TGI (EKVX NSCLC): > 100 µM
TGI (HCT-116 colon): > 100 µM
TGI (HCT-15 colon): > 100 µM
TGI (HL-60(TB) leukemia): > 100 µM
TGI (HOP-62 NSCLC): > 100 µM
TGI (HOP-92 NSCLC): > 100 µM
TGI (HS 578T breast): > 100 µM
TGI (HT29 colon): > 100 µM
TGI (IGROV1 ovarian): > 100 µM
TGI (K-562 leukemia): > 100 µM
TGI (KM12 colon): > 100 µM
TGI (LOX IMVI melanoma): > 100 µM
TGI (M14 melanoma): > 100 µM
TGI (MALME-3M melanoma): > 100 µM
TGI (MCF7 breast): > 100 µM
TGI (MDA-MB-231 breast): > 100 µM
TGI (MDA-MB-435): > 100 µM
TGI (MDA-N): > 100 µM
TGI (MOLT-4 leukemia): > 100 µM
TGI (NCI-H226 lung): > 100 µM
TGI (NCI-H23 lung): > 100 µM
TGI (NCI-H460 lung): > 100 µM
TGI (NCI-H522 lung): > 100 µM
TGI (NCI/ADR-RES ovarian): > 100 µM
TGI (OVCAR-3 ovarian): > 100 µM
TGI (OVCAR-4 ovarian): > 100 µM
TGI (OVCAR-5 ovarian): > 100 µM
TGI (OVCAR-8 ovarian): > 100 µM
TGI (PC-3 prostate): > 100 µM
TGI (RPMI-8226 leukemia): > 100 µM
TGI (RXF 393 renal): > 100 µM
TGI (SF-268 CNS): > 100 µM
TGI (SF-295 CNS): > 100 µM
TGI (SF-539 CNS): > 100 µM
TGI (SK-MEL-2 melanoma): > 100 µM
TGI (SK-MEL-28 melanoma): > 100 µM
TGI (SK-MEL-5 melanoma): > 100 µM
TGI (SK-OV-3 ovarian): > 100 µM
TGI (SN12C renal): > 100 µM
TGI (SNB-19 CNS): > 100 µM
TGI (SNB-75 CNS): > 100 µM
TGI (SR leukemia): > 100 µM
TGI (SW-620 colon): > 100 µM
TGI (T-47D breast): > 100 µM
TGI (TK-10 renal): > 100 µM
TGI (U251 CNS): > 100 µM
TGI (UACC-257 melanoma): > 100 µM
TGI (UACC-62 melanoma): > 100 µM
TGI (UO-31 renal): > 100 µM
